From PubChem BioAssay AID1259407 (Chemical Carcinogenesis Research Information System (CCRIS), 2018)
Active and inactive are the calls of the source. No rule for the calls is given here.

Tested on: CCRIS mutagenicity, Ames/micronucleus/aberration tests
Experiment: CCRIS mutagenicity studies
[1] = Test System: AMES SALMONELLA TYPHIMURIUM, Strain/Indicator: TA98, Metabolic Activation: NONE, Method: STANDARD PLATE
[2] = Test System: AMES SALMONELLA TYPHIMURIUM, Strain/Indicator: TA98, Metabolic Activation: RAT, LIVER, S-9, AROCLOR 1254, Method: STANDARD PLATE
[3] = Test System: AMES SALMONELLA TYPHIMURIUM, Strain/Indicator: TA100, Metabolic Activation: NONE, Method: STANDARD PLATE
[4] = Test System: AMES SALMONELLA TYPHIMURIUM, Strain/Indicator: TA100, Metabolic Activation: RAT, LIVER, S-9, AROCLOR 1254, Method: STANDARD PLATE
[5] = Test System: AMES SALMONELLA TYPHIMURIUM, Strain/Indicator: TA1535, Metabolic Activation: NONE, Method: STANDARD PLATE
[6] = Test System: AMES SALMONELLA TYPHIMURIUM, Strain/Indicator: TA1535, Metabolic Activation: RAT, LIVER, S-9, AROCLOR 1254, Method: STANDARD PLATE
[7] = Test System: AMES SALMONELLA TYPHIMURIUM, Strain/Indicator: TA1537, Metabolic Activation: NONE, Method: STANDARD PLATE
[8] = Test System: AMES SALMONELLA TYPHIMURIUM, Strain/Indicator: TA1537, Metabolic Activation: RAT, LIVER, S-9, AROCLOR 1254, Method: STANDARD PLATE
[9] = Test System: AMES SALMONELLA TYPHIMURIUM, Strain/Indicator: TA1538, Metabolic Activation: NONE, Method: STANDARD PLATE
[10] = Test System: AMES SALMONELLA TYPHIMURIUM, Strain/Indicator: TA1538, Metabolic Activation: RAT, LIVER, S-9, AROCLOR 1254, Method: STANDARD PLATE
[11] = Test System: Ames Salmonella typhimurium, Strain/Indicator: TA100, Metabolic Activation: None, Method: Preincubation
[12] = Test System: Ames Salmonella typhimurium, Strain/Indicator: TA102, Metabolic Activation: None, Method: Preincubation

C=C(C)C(=O)OCCCCC was tested, and the mutagenic call [1] was “inactive; negative”, the mutagenic call [2] was “inactive; negative” and the mutagenic call (Test System: AMES SALMONELLA TYPHIMURIUM, Strain/Indicator: TA98, Metabolic Activation: RAT, LIVER, S-9, SODIUM PHENOBARBITAL, Method: STANDARD PLATE) was “inactive; negative”. For the same compound, the mutagenic call [3] was “inactive; negative”, the mutagenic call [4] was “inactive; negative” and the mutagenic call (Test System: AMES SALMONELLA TYPHIMURIUM, Strain/Indicator: TA100, Metabolic Activation: RAT, LIVER, S-9, SODIUM PHENOBARBITAL, Method: STANDARD PLATE) was “inactive; negative”. The mutagenic call [5] was “inactive; negative”, the mutagenic call [6] was “inactive; negative” and the mutagenic call (Test System: AMES SALMONELLA TYPHIMURIUM, Strain/Indicator: TA1535, Metabolic Activation: RAT, LIVER, S-9, SODIUM PHENOBARBITAL, Method: STANDARD PLATE) was “inactive; negative”. For the same compound, the mutagenic call [7] was “inactive; negative”, the mutagenic call [8] was “inactive; negative” and the mutagenic call (Test System: AMES SALMONELLA TYPHIMURIUM, Strain/Indicator: TA1537, Metabolic Activation: RAT, LIVER, S-9, SODIUM PHENOBARBITAL, Method: STANDARD PLATE) was “inactive; negative”. The mutagenic call [9] was “inactive; negative”, the mutagenic call [10] was “inactive; negative” and the mutagenic call (Test System: AMES SALMONELLA TYPHIMURIUM, Strain/Indicator: TA1538, Metabolic Activation: RAT, LIVER, S-9, SODIUM PHENOBARBITAL, Method: STANDARD PLATE) was “inactive; negative”.
With O=c1c2ccccc2c(=O)c2c1cc(Cl)c1[nH]c3c([nH]c12)c(Cl)cc1c(=O)c2ccccc2c(=O)c13 the mutagenic call (Test System: Ames Salmonella typhimurium, Strain/Indicator: TA98, Metabolic Activation: None, Method: Preincubation) was “active; positive”, the mutagenic call [11] was “inactive; negative” and the mutagenic call [12] was “inactive; negative”. For the same compound, the mutagenic call (Test System: Ames Salmonella typhimurium, Strain/Indicator: TA1535, Metabolic Activation: None, Method: Preincubation) was “inactive; negative”.
With C1=C\CC/C=C\CC/1.C1=C\CC/C=C\CC/1.[Ni] the mutagenic call (Test System: AMES SALMONELLA TYPHIMURIUM, Strain/Indicator: TA97, Metabolic Activation: HAMSTER, LIVER, S-9, AROCLOR 1254 (10%), Method: PREINCUBATION) was “inactive; negative”, the mutagenic call (Test System: AMES SALMONELLA TYPHIMURIUM, Strain/Indicator: TA97, Metabolic Activation: HAMSTER, LIVER, S-9, AROCLOR 1254 (30%), Method: PREINCUBATION) was “inactive; negative” and the mutagenic call (Test System: AMES SALMONELLA TYPHIMURIUM, Strain/Indicator: TA97, Metabolic Activation: NONE, Method: PREINCUBATION) was “inactive; negative”. For the same compound, the mutagenic call (Test System: AMES SALMONELLA TYPHIMURIUM, Strain/Indicator: TA97, Metabolic Activation: RAT, LIVER, S-9, AROCLOR 1254 (10%), Method: PREINCUBATION) was “inactive; negative”, the mutagenic call (Test System: AMES SALMONELLA TYPHIMURIUM, Strain/Indicator: TA97, Metabolic Activation: RAT, LIVER, S-9, AROCLOR 1254 (30%), Method: PREINCUBATION) was “inactive; negative” and the mutagenic call (Test System: AMES SALMONELLA TYPHIMURIUM, Strain/Indicator: TA98, Metabolic Activation: HAMSTER, LIVER, S-9, AROCLOR 1254 (10%), Method: PREINCUBATION) was “inactive; negative”. The mutagenic call (Test System: AMES SALMONELLA TYPHIMURIUM, Strain/Indicator: TA98, Metabolic Activation: NONE, Method: PREINCUBATION) was “inactive; negative”, the mutagenic call (Test System: AMES SALMONELLA TYPHIMURIUM, Strain/Indicator: TA98, Metabolic Activation: RAT, LIVER, S-9, AROCLOR 1254 (10%), Method: PREINCUBATION) was “inactive; negative” and the mutagenic call (Test System: AMES SALMONELLA TYPHIMURIUM, Strain/Indicator: TA100, Metabolic Activation: HAMSTER, LIVER, S-9, AROCLOR 1254 (10%), Method: PREINCUBATION) was “inactive; negative”. The mutagenic call (Test System: AMES SALMONELLA TYPHIMURIUM, Strain/Indicator: TA100, Metabolic Activation: HAMSTER, LIVER, S-9, AROCLOR 1254 (30%), Method: PREINCUBATION) was “inactive; negative”, the mutagenic call (Test System: AMES SALMONELLA TYPHIMURIUM, Strain/Indicator: TA100, Metabolic Activation: NONE, Method: PREINCUBATION) was “inactive; negative” and the mutagenic call (Test System: AMES SALMONELLA TYPHIMURIUM, Strain/Indicator: TA100, Metabolic Activation: RAT, LIVER, S-9, AROCLOR 1254 (10%), Method: PREINCUBATION) was “active; positive”. The mutagenic call (Test System: AMES SALMONELLA TYPHIMURIUM, Strain/Indicator: TA100, Metabolic Activation: RAT, LIVER, S-9, AROCLOR 1254 (30%), Method: PREINCUBATION) was “inactive; negative”, the mutagenic call (Test System: AMES SALMONELLA TYPHIMURIUM, Strain/Indicator: TA1535, Metabolic Activation: HAMSTER, LIVER, S-9, AROCLOR 1254 (10%), Method: PREINCUBATION) was “inactive; negative” and the mutagenic call (Test System: AMES SALMONELLA TYPHIMURIUM, Strain/Indicator: TA1535, Metabolic Activation: NONE, Method: PREINCUBATION) was “inactive; negative”. For the same compound, the mutagenic call (Test System: AMES SALMONELLA TYPHIMURIUM, Strain/Indicator: TA1535, Metabolic Activation: RAT, LIVER, S-9, AROCLOR 1254 (10%), Method: PREINCUBATION) was “inactive; negative”, the mutagenic call [11] was “inactive; negative” and the mutagenic call (Test System: Ames Salmonella typhimurium, Strain/Indicator: TA100, Metabolic Activation: Rat, Liver, S9, Phenobarbital and 5,6-benzoflavone, Method: Preincubation) was “inactive; negative”. For the same compound, the mutagenic call [12] was “inactive; negative” and the mutagenic call (Test System: Ames Salmonella typhimurium, Strain/Indicator: TA102, Metabolic Activation: Rat, Liver, S9, Phenobarbital and 5,6-benzoflavone, Method: Preincubation) was “inactive; negative”.
For CCCCOc1cc([N+](=O)[O-])ccc1C(=O)NOC(C)=O, the mutagenic call [3] was “active; positive” and the mutagenic call (Test System: AMES SALMONELLA TYPHIMURIUM, Strain/Indicator: TA100, Metabolic Activation: RAT S9, AROCLOR, Method: STANDARD PLATE) was “active; positive”.
In the case of Clc1cc(Cl)nc(Cl)n1, the mutagenic call (Test System: AMES SALMONELLA TYPHIMURIUM, Strain/Indicator: TA98, Metabolic Activation: HAMSTER, LIVER, S-9, AROCLOR 1254, Method: STANDARD PLATE) is reported as “inactive; negative”, the mutagenic call [1] is reported as “inactive; negative” and the mutagenic call [2] is reported as “inactive; negative”. The mutagenic call (Test System: AMES SALMONELLA TYPHIMURIUM, Strain/Indicator: TA100, Metabolic Activation: HAMSTER, LIVER, S-9, AROCLOR 1254, Method: STANDARD PLATE) was “inactive; negative”, the mutagenic call [3] was “inactive; negative” and the mutagenic call [4] was “inactive; negative”. The mutagenic call (Test System: AMES SALMONELLA TYPHIMURIUM, Strain/Indicator: TA1535, Metabolic Activation: HAMSTER, LIVER, S-9, AROCLOR 1254, Method: STANDARD PLATE) was “inactive; negative”, the mutagenic call [5] was “inactive; negative” and the mutagenic call [6] was “inactive; negative”. For the same compound, the mutagenic call (Test System: AMES SALMONELLA TYPHIMURIUM, Strain/Indicator: TA1537, Metabolic Activation: HAMSTER, LIVER, S-9, AROCLOR 1254, Method: STANDARD PLATE) was “inactive; negative”, the mutagenic call [7] was “inactive; negative” and the mutagenic call [8] was “inactive; negative”. The mutagenic call (Test System: AMES SALMONELLA TYPHIMURIUM, Strain/Indicator: TA1538, Metabolic Activation: HAMSTER, LIVER, S-9, AROCLOR 1254, Method: STANDARD PLATE) was “inactive; negative”, the mutagenic call [9] was “inactive; negative” and the mutagenic call [10] was “inactive; negative”. For the same compound, the mutagenic call (Test System: Mouse lymphoma, Strain/Indicator: L5178Y (tk+/tk-), Metabolic Activation: None, Method: Suspension/plate) was “active; inconclusive (previous evaluation positive)” and the mutagenic call (Test System: Mouse lymphoma, Strain/Indicator: L5178Y (tk+/tk-), Metabolic Activation: Rat, Liver, S-9, Aroclor 1254, Method: Suspension/plate) was “active; positive”.
